The structures appear in SMILES notation. Bounds are passed on as bounds.

A short description of assay [1]: Inhibition of BTK in goat anti-human IgM F(ab')2-stimulated human B cells assessed as reduction in cell proliferation pretreated for 30 mins followed by goat anti-human IgM F(ab')2-stimulation and measured after 3 days by [3H]-thymidine incorporation assay. For orientation: Dividing cells build labelled thymidine or BrdU into new DNA.
Assay [2] is described as follows: Inhibition of BTK in anti-CD3/CD28-stimulated human CD4-positive T cells assessed as reduction in cell proliferation pretreated for 30 mins followed by anti-CD3/CD28-stimulation and measured after 3 days by [3H]-thymidine incorporation assay.

Broadly, the IC50 is the concentration that inhibits the measured activity by half. As for `N#CN1CCCC(n2nc(-c3ccc(Oc4ccc(Cl)cc4)cc3)c(C(N)=O)c2N)C1` (single isomer, unassigned), the 50% inhibitory concentration (IC50) in assay [1] worked out at 1.7 nM; in assay [2], 8150 nM.
The like results for `N#CN1CCC[C@@H](n2nc(-c3ccc(Oc4ccc(F)cc4F)cc3)c(C(N)=O)c2N)C1` were, in that order, 2.7 nM and greater than 10000 nM.
`N#CN1CCC[C@@H](n2nc(-c3ccc(Oc4ncc(Cl)cc4F)cc3)c(C(N)=O)c2N)C1` [(R)-5-amino-3-(4-((5-chloro-3-fluoropyridin-2-yl)oxy)phenyl)-1-(1-cyanopiperidin-3-yl)-1H-pyrazole-4-carboxamide]: the IC50 in assay [1] was 19 nM; in assay [2], greater than 10000 nM.
The like results for `N#CN1CCC[C@@H](n2nc(-c3ccc(Oc4cccc(C(F)(F)F)n4)cc3)c(C(N)=O)c2N)C1` were, in that order, 15 nM and 10100 nM.
Taken in the same sequence, the figures for `N#CN1CCC[C@@H](n2nc(-c3ccc(Oc4ccc(Cl)cn4)cc3)c(C(N)=O)c2N)C1` were 1.6 nM and greater than 10000 nM.

These data come from BindingDB's records for doi:10.1021/acsmedchemlett.8b00461 (Pfizer, 2019).
